Source: PubChem BioAssay AID1963827 (Molecular Pharmacology Branch, DTP, NCI, 2024)

System: 994946-033-R-J1-PDC complex spheroid viability
Assay: Anticancer human tumor 994946-033-R-J1-PDC patient-derived melanoma cell line growth inhibition [POLQ]
Settings: for IC50: curve of first compound; for viability, T/C: stronger effect = lower value
Method in brief: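 Patient-derived tumour cells were co-cultured with HUVEC and mesenchymal stem cells as multicellular spheroids at 37 °C. They were treated with POLQ inhibitors (novobiocin, ART-558, RP6685) alone or combined with other agents. Top concentrations were at or near clinical Cmax (otherwise 10 microM; SN-38 at 1 microM), decreasing in half-log steps.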

[1] = second compound 0.0316 µM, first compound 0.00316 µM
[2] = second compound 0.0316 µM, first compound 0.01 µM
[3] = second compound 0.0316 µM, first compound 0.0316 µM
[4] = second compound 0.0316 µM, first compound 0.1 µM
[5] = second compound 0.1 µM, first compound 0.00316 µM
[6] = second compound 0.1 µM, first compound 0.01 µM
[7] = second compound 0.1 µM, first compound 0.0316 µM
[8] = second compound 0.1 µM, first compound 0.1 µM
[9] = second compound 0.316 µM, first compound 0.00316 µM
[10] = second compound 0.316 µM, first compound 0.01 µM
[11] = second compound 0.316 µM, first compound 0.0316 µM
[12] = second compound 0.316 µM, first compound 0.1 µM
[13] = second compound 1 µM, first compound 0.00316 µM
[14] = second compound 1 µM, first compound 0.01 µM
[15] = second compound 1 µM, first compound 0.0316 µM
[16] = second compound 1 µM, first compound 0.1 µM
[17] = second compound 3.16 µM, first compound 0.00316 µM
[18] = second compound 3.16 µM, first compound 0.01 µM
[19] = second compound 3.16 µM, first compound 0.0316 µM
[20] = second compound 3.16 µM, first compound 0.1 µM
[21] = second compound 10 µM, first compound 0.00316 µM
[22] = second compound 10 µM, first compound 0.01 µM
[23] = second compound 10 µM, first compound 0.0316 µM
[24] = second compound 10 µM, first compound 0.1 µM
[25] = second compound 0.0316 µM, first compound 0.316 µM
[26] = second compound 0.0316 µM, first compound 1 µM
[27] = second compound 0.1 µM, first compound 0.316 µM
[28] = second compound 0.1 µM, first compound 1 µM
[29] = second compound 0.316 µM, first compound 0.316 µM
[30] = second compound 0.316 µM, first compound 1 µM
[31] = second compound 1 µM, first compound 0.316 µM
[32] = second compound 1 µM, first compound 1 µM
[33] = second compound 3.16 µM, first compound 0.316 µM
[34] = second compound 3.16 µM, first compound 1 µM
[35] = second compound 10 µM, first compound 0.316 µM
[36] = second compound 10 µM, first compound 1 µM
[37] = second compound 0.0316 µM, first compound 3.16 µM
[38] = second compound 0.0316 µM, first compound 10 µM
[39] = second compound 0.1 µM, first compound 3.16 µM
[40] = second compound 0.1 µM, first compound 10 µM
[41] = second compound 0.316 µM, first compound 3.16 µM
[42] = second compound 0.316 µM, first compound 10 µM
[43] = second compound 1 µM, first compound 3.16 µM
[44] = second compound 1 µM, first compound 10 µM
[45] = second compound 3.16 µM, first compound 3.16 µM
[46] = second compound 3.16 µM, first compound 10 µM
[47] = second compound 10 µM, first compound 3.16 µM
[48] = second compound 10 µM, first compound 10 µM
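Also: spheroids exposed to drugs for 7 days.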
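For viability, T/C in this document: 100% = DMSO vehicle treated spheroids.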

CC[C@@]1(O)C(=O)OCc2c1cc1n(c2=O)Cc2cc3c(CN(C)C)c(O)ccc3nc2-1 + Cc1cccc(N(C)C(=O)C2C(O)CCN2c2nc(C)cc(C(F)(F)F)c2C#N)c1
IC50 (second compound 0.0316 µM): 19.1 nM
IC50 (second compound 0.1 µM): 19.1 nM
IC50 (second compound 0.316 µM): 20.1 nM
IC50 (second compound 1 µM): 11.2 nM
IC50 (second compound 3.16 µM): 18.3 nM
IC50 (second compound 10 µM): 21.1 nM
viability, T/C (second compound 0.0316 µM, first compound 0.000316 µM): 80.5%
viability, T/C (second compound 0.0316 µM, first compound 0.001 µM): 94%
viability, T/C [1]: 110%
viability, T/C [2]: 73%
viability, T/C [3]: 30.9%
viability, T/C [4]: 8.8%
viability, T/C (second compound 0.1 µM, first compound 0.000316 µM): 113%
viability, T/C (second compound 0.1 µM, first compound 0.001 µM): 78.6%
viability, T/C [5]: 87%
viability, T/C [6]: 78%
viability, T/C [7]: 28.5%
viability, T/C [8]: 9.63%
viability, T/C (second compound 0.316 µM, first compound 0.000316 µM): 83.4%
viability, T/C (second compound 0.316 µM, first compound 0.001 µM): 106%
viability, T/C [9]: 94.8%
viability, T/C [10]: 82%
viability, T/C [11]: 29.2%
viability, T/C [12]: 12.1%
viability, T/C (second compound 1 µM, first compound 0.000316 µM): 108%
viability, T/C (second compound 1 µM, first compound 0.001 µM): 71.3%
viability, T/C [13]: 79.3%
viability, T/C [14]: 57.5%
viability, T/C [15]: 26.9%
viability, T/C [16]: 9.85%
viability, T/C (second compound 3.16 µM, first compound 0.000316 µM): 96.1%
viability, T/C (second compound 3.16 µM, first compound 0.001 µM): 98.7%
viability, T/C [17]: 77%
viability, T/C [18]: 71%
viability, T/C [19]: 33.4%
viability, T/C [20]: 10.7%
viability, T/C (second compound 10 µM, first compound 0.000316 µM): 113%
viability, T/C (second compound 10 µM, first compound 0.001 µM): 99.6%
viability, T/C [21]: 107%
viability, T/C [22]: 81.8%
viability, T/C [23]: 32.7%
viability, T/C [24]: 10.4%

CCc1c2c(nc3ccc(O)cc13)-c1cc3c(c(=O)n1C2)COC(=O)[C@]3(O)CC + Cc1cccc(N(C)C(=O)C2C(O)CCN2c2nc(C)cc(C(F)(F)F)c2C#N)c1
IC50 (second compound 0.0316 µM): < 3.16 nM
IC50 (second compound 0.1 µM): < 3.16 nM
IC50 (second compound 0.316 µM): < 3.16 nM
IC50 (second compound 1 µM): < 3.16 nM
IC50 (second compound 3.16 µM): < 3.16 nM
IC50 (second compound 10 µM): < 3.16 nM
viability, T/C [1]: 17.5%
viability, T/C [2]: 10.9%
viability, T/C [3]: 5%
viability, T/C [4]: 5.25%
viability, T/C [25]: 2.7%
viability, T/C [26]: 1.11%
viability, T/C [5]: 18.9%
viability, T/C [6]: 10%
viability, T/C [7]: 7.4%
viability, T/C [8]: 5.26%
viability, T/C [27]: 3.12%
viability, T/C [28]: 0.8%
viability, T/C [9]: 18.6%
viability, T/C [10]: 8.02%
viability, T/C [11]: 5.77%
viability, T/C [12]: 4.13%
viability, T/C [29]: 4.1%
viability, T/C [30]: 1.27%
viability, T/C [13]: 18.7%
viability, T/C [14]: 8.88%
viability, T/C [15]: 5.58%
viability, T/C [16]: 7.75%
viability, T/C [31]: 3.43%
viability, T/C [32]: 1.3%
viability, T/C [17]: 26.8%
viability, T/C [18]: 12%
viability, T/C [19]: 8.11%
viability, T/C [20]: 5.61%
viability, T/C [33]: 2.9%
viability, T/C [34]: 0.8%
viability, T/C [21]: 17.9%
viability, T/C [22]: 9.1%
viability, T/C [23]: 5.89%
viability, T/C [24]: 4%
viability, T/C [35]: 2.6%
viability, T/C [36]: 0.66%

O=C(c1cc(Cc2n[nH]c(=O)c3ccccc23)ccc1F)N1CCN(C(=O)C2CC2)CC1 + Cc1cccc(N(C)C(=O)C2C(O)CCN2c2nc(C)cc(C(F)(F)F)c2C#N)c1
IC50 (second compound 0.0316 µM): 6120 nM
IC50 (second compound 0.1 µM): 4160 nM
IC50 (second compound 0.316 µM): 8940 nM
IC50 (second compound 1 µM): 6770 nM
IC50 (second compound 3.16 µM): 4890 nM
IC50 (second compound 10 µM): > 10000 nM
viability, T/C [3]: 103%
viability, T/C [4]: 92.8%
viability, T/C [25]: 82.3%
viability, T/C [26]: 94.2%
viability, T/C [37]: 80.2%
viability, T/C [38]: 27.3%
viability, T/C [7]: 100%
viability, T/C [8]: 105%
viability, T/C [27]: 89.9%
viability, T/C [28]: 69.6%
viability, T/C [39]: 57.9%
viability, T/C [40]: 35.9%
viability, T/C [11]: 106%
viability, T/C [12]: 95.3%
viability, T/C [29]: 82.5%
viability, T/C [30]: 86.8%
viability, T/C [41]: 92%
viability, T/C [42]: 45.5%
viability, T/C [15]: 79.7%
viability, T/C [16]: 102%
viability, T/C [31]: 81.7%
viability, T/C [32]: 84.3%
viability, T/C [43]: 75.6%
viability, T/C [44]: 37%
viability, T/C [19]: 105%
viability, T/C [20]: 97.6%
viability, T/C [33]: 79.5%
viability, T/C [34]: 88.3%
viability, T/C [45]: 56.8%
viability, T/C [46]: 33.3%
viability, T/C [23]: 110%
viability, T/C [24]: 93.4%
viability, T/C [35]: 83.3%
viability, T/C [36]: 78%
viability, T/C [47]: 77.5%
viability, T/C [48]: 56.1%

O=c1[nH]cc(F)c(=O)[nH]1 + Cc1cccc(N(C)C(=O)C2C(O)CCN2c2nc(C)cc(C(F)(F)F)c2C#N)c1
IC50 (second compound 0.0316 µM): 4630 nM
IC50 (second compound 0.1 µM): 2490 nM
IC50 (second compound 0.316 µM): 2290 nM
IC50 (second compound 1 µM): > 10000 nM
IC50 (second compound 3.16 µM): 1460 nM
IC50 (second compound 10 µM): 10000 nM
viability, T/C [3]: 97.5%
viability, T/C [4]: 91.7%
viability, T/C [25]: 63.8%
viability, T/C [26]: 71.5%
viability, T/C [37]: 48.6%
viability, T/C [38]: 45.2%
viability, T/C [7]: 91.6%
viability, T/C [8]: 106%
viability, T/C [27]: 101%
viability, T/C [28]: 69.1%
viability, T/C [39]: 49.4%
viability, T/C [40]: 36.3%
viability, T/C [11]: 85.5%
viability, T/C [12]: 78.7%
viability, T/C [29]: 89.8%
viability, T/C [30]: 62.4%
viability, T/C [41]: 45.6%
viability, T/C [42]: 44.6%
viability, T/C [15]: 95%
viability, T/C [16]: 63.2%
viability, T/C [31]: 63%
viability, T/C [32]: 56.8%
viability, T/C [43]: 52.3%
viability, T/C [44]: 47.8%
viability, T/C [19]: 99.3%
viability, T/C [20]: 95%
viability, T/C [33]: 66%
viability, T/C [34]: 55.2%
viability, T/C [45]: 45.3%
viability, T/C [46]: 47.3%
viability, T/C [23]: 97.1%
viability, T/C [24]: 103%
viability, T/C [35]: 52.7%
viability, T/C [36]: 58.5%
viability, T/C [47]: 49.7%
viability, T/C [48]: 43%
